According to US10065990B2, “Cyclic peptide compound, and preparation method, pharmaceutical composition and use thereof” (HANGZHOU GUANYU BIO-MEDICAL CO., LTD, priority 2013, dated 2018):
Read-outs that look alike come from different tables or passages of the source.

Tests used:
[1] = molecular target: T1, HDAC7 (Homo sapiens, UniProt Q8WUI4); assay: HDAC biochemical activity measurement (fluorescent substrate deacetylation);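 also: fluorogenic deacetylation assay using acetyl-lysine substrate at 20 µM, enzyme and compound incubated 30 min at 37 °C, then developer added, fluorescence read at 360/460 nm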; settings: HDAC7; 37° C. 30 minutes
T1 sequence (Q8WUI4 1-952): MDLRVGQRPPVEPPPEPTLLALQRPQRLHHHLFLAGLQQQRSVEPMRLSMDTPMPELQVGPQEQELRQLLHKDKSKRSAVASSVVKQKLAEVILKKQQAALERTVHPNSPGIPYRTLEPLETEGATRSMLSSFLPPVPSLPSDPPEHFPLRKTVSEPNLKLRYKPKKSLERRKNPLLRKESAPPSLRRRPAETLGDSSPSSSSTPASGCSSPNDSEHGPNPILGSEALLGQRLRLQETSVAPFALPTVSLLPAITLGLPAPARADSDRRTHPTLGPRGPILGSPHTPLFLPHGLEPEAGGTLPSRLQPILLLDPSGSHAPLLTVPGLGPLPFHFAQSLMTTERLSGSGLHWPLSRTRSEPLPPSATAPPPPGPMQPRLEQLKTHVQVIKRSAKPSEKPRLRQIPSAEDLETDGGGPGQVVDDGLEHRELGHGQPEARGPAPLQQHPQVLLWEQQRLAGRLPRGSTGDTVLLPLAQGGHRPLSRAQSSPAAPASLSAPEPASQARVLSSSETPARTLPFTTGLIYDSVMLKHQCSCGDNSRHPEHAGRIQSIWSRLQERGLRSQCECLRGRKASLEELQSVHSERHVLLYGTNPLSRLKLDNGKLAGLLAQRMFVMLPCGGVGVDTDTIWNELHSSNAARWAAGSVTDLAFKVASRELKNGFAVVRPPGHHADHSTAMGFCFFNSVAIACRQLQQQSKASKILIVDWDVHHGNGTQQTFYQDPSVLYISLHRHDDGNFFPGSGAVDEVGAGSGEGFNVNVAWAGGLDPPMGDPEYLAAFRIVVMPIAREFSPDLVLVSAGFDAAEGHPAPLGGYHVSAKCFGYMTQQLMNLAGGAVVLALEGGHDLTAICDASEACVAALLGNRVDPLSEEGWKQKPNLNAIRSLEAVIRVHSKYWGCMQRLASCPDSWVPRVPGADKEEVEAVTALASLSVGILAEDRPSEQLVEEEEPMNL

[2] = system: A549 (human lung cancer cells); assay: MTT cancer cell growth inhibition; assay type: cell-based; settings: Homo sapiens, A549, 72 h, MTT, 72 hours incubation, read-out: GI50 A54
Outline: (§1)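 Read-out was formazan absorbance at 570 nm after a 4 h MTT step and DMSO solubilisation, converted to cell viability and fitted for GI50. Beforehand, cells (1500/well, overnight attachment) were treated with compound at 10^−5 to 10^−10 M for 72 h at 37° C.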

[3] = system: BGC-823 (human gastric cancer cells); assay: MTT cancer cell growth inhibition; assay type: cell-based; settings: Homo sapiens, BGC-823, 72 h, MTT, 72 hours incubation, read-out: GI50 BG
Outline: as §1

[4] = system: Bel-7402 (human hepatoma cells); assay: MTT cancer cell growth inhibition; assay type: cell-based; settings: Homo sapiens, Bel-7402, 72 h, MTT, 72 hours incubation, Bel-7402 cells; read-out: GI50 Bel-7402
Outline: as §1

[5] = system: DU145 (human prostate cancer cells); assay: MTT cancer cell growth inhibition; assay type: cell-based; settings: Homo sapiens, DU-145, 72 h, MTT, 72 hours incubation, read-out: GI50 Du1
Outline: as §1

[6] = system: H1975 (non-small cell lung adenocarcinoma); assay: MTT cancer cell growth inhibition; assay type: cell-based; settings: Homo sapiens, NCI-H1975, 72 h, MTT, 72 hours incubation, H1975 cells; read-out: GI50 H1975
Outline: as §1

[7] = system: HCC827 (human non-small cell lung cancer cells); assay: MTT cancer cell growth inhibition; assay type: cell-based; settings: Homo sapiens, HCC827, 72 h, MTT, 72 hours incubation, HCC827 cells; read-out: GI50 HCC827
Outline: as §1

[8] = system: HT1080 (human fibrosarcoma cells); assay: MTT cancer cell growth inhibition; assay type: cell-based; settings: Homo sapiens, HT-1080, 72 h, MTT, 72 hours incubation, read-out: GI50 HT1
Outline: as §1

[9] = system: Hela (human cervical cancer cells); assay: MTT cancer cell growth inhibition; assay type: cell-based; settings: Homo sapiens, HeLa, 72 h, MTT, 72 hours incubation, read-out: GI50 Hela
Outline: as §1

[10] = system: Huh-7 (human hepatoma cells); assay: MTT cancer cell growth inhibition; assay type: cell-based; settings: Homo sapiens, Huh-7, 72 h, MTT, 72 hours incubation, Huh-7 cells; read-out: GI50 Huh-7
Outline: as §1

[11] = system: K562 (human leukemia cells); assay: MTT cancer cell growth inhibition; assay type: cell-based; settings: Homo sapiens, K562, 72 h, MTT, 72 hours incubation, K562 cells; read-out: GI50 K562
Outline: as §1

[12] = system: KBM-5 (human chronic myelogenous leukemia); assay: MTT cancer cell growth inhibition; assay type: cell-based; settings: Homo sapiens, KBM5, 72 h, MTT, 72 hours incubation, KBM-5 cells; read-out: GI50 KBM-5
Outline: as §1

[13] = system: KBM5-T315I (human chronic myelogenous leukemia); assay: MTT cancer cell growth inhibition; assay type: cell-based; settings: Homo sapiens, 72 h, MTT, 72 hours incubation, KBM5-T315I cells; read-out: GI50 KBM5-T315I
Outline: as §1

[14] = system: MCF-7 (human breast cancer cells); assay: MTT cancer cell growth inhibition; assay type: cell-based; settings: Homo sapiens, MCF7, 72 h, 72 hours incubation, read-out: GI50 MCF
Outline: as §1

[15] = system: MDA-MB-231 (breast cancer cells); assay: MTT cancer cell growth inhibition; assay type: cell-based; settings: Homo sapiens, MDA-MB-231, 72 h, read-out: GI50 MDA-MB-231, MTT, 72 hours incubation, MDA-MB-231 cells
Outline: as §1

[16] = system: MOLT-4 (human acute lymphoblastic leukemia cells); assay: MTT cancer cell growth inhibition; assay type: cell-based; settings: Homo sapiens, MOLT-4, 72 h, MTT, 72 hours incubation, read-out: GI50 Mol
Outline: as §1

[17] = system: N-87 (human gastric cancer cells); assay: MTT cancer cell growth inhibition; assay type: cell-based; settings: Homo sapiens, 72 h, MTT, 72 hours incubation, N-87 cells; read-out: GI50 N-87
Outline: as §1

[18] = system: PANC-1 (Pac-1, human pancreatic cancer cells); assay: MTT cancer cell growth inhibition; assay type: cell-based; settings: Homo sapiens, PANC-1, 72 h, MTT, 72 hours incubation, read-out: GI50 PAN
Outline: as §1

[19] = system: SGC-7901 (human gastric cancer cells); assay: MTT cancer cell growth inhibition; assay type: cell-based; settings: Homo sapiens, SGC-7901, 72 h, MTT, 72 hours incubation, SGC-7901 cells; read-out: GI50 SGC-7901
Outline: as §1

[20] = system: U937 (human leukemia cells); assay: MTT cancer cell growth inhibition; assay type: cell-based; settings: Homo sapiens, U-937, 72 h, MTT, 72 hours incubation, read-out: GI50 U93
Outline: as §1

[21] = system: lncap (prostate cancer cells); assay: MTT cancer cell growth inhibition; assay type: cell-based; settings: Homo sapiens, LNCaP, 72 h, MTT, 72 hours incubation, read-out: GI50 lnca
Outline: as §1

Row | IC50 HDAC7 [1] | GI50 [4] | GI50 [6] | GI50 [7] | GI50 [10] | GI50 [11] | GI50 [12] | GI50 [13] | GI50 [15] | GI50 [17] | GI50 [19] | GI50 [2] | GI50 [3] | GI50 [5] | GI50 [8] | GI50 [9] | GI50 [14] | GI50 [16] | GI50 [18] | GI50 [20] | Structure (SMILES) | further results
1 | no activity | 35 nM | 39 nM | 23 nM | 35 nM | 83 nM | 31 nM | 41 nM | 35 nM | 23 nM | 71 nM | – | – | – | – | – | – | – | – | – | C/C=C1\NC(=O)c2ccc(SC)c(n2)CNC(=O)C[C@@H](/C=C/CCSC(=O)CCCCCCC)OC(=O)[C@H](C)NC1=O [Compound 182] | GI50 ([2]; A549 cells): 60 nM; GI50 ([3]; BGC-823 cells): 70 nM; GI50 ([5]; DU145 cells): 50 nM; GI50 ([8]; HT1080 cells): 30 nM; GI50 ([9]; Hela cells): 60 nM; GI50 ([14]; MCF-7 cells): 30 nM; GI50 ([16]; MOLT-4 cells): 30 nM; GI50 ([18]; PANC-1 cells): 90 nM; GI50 ([20]; U937 cells): 80 nM; GI50 ([21]; lncap cells): 100 nM
2 | no activity | 91 nM | 63 nM | 29 nM | 77 nM | 34 nM | 43 nM | 37 nM | 87 nM | 33 nM | 29 nM | 270 nM | 90 nM | 70 nM | 60 nM | 910 nM | 1210 nM | 70 nM | 80 nM | 450 nM | C/C=C1\NC(=O)c2cccc(n2)CNC(=O)C[C@@H](/C=C/CCS)OC(=O)[C@H](C)NC1=O [Example 29] | GI50 [21]: 50 nM
3 | no activity | 76 nM | 43 nM | 22 nM | 36 nM | 21 nM | 42 nM | 45 nM | 52 nM | 16 nM | 72 nM | 40 nM | 20 nM | 20 nM | 20 nM | 60 nM | 20 nM | 50 nM | 30 nM | 20 nM | CC(C)=C1NC(=O)c2ccc(F)c(n2)CNC(=O)C[C@@H](/C=C/CCS)OC(=O)[C@H](C(C)C)NC1=O [Compound 138] | GI50 [21]: 50 nM
4 | no activity | 23 nM | 16 nM | 73 nM | 35 nM | 55 nM | 21 nM | 31 nM | 58 nM | 73 nM | 41 nM | 60 nM | 80 nM | 60 nM | 90 nM | 70 nM | 60 nM | 90 nM | 80 nM | 60 nM | C/C=C1\NC(=O)c2nc(ccc2F)CNC(=O)C[C@@H](/C=C/CCS)OC(=O)[C@H](C)NC1=O [Compound 112] | GI50 [21]: 70 nM
5 | no activity | 55 nM | 35 nM | 35 nM | 19 nM | 57 nM | 46 nM | 53 nM | 35 nM | 84 nM | 32 nM | 40 nM | 30 nM | 100 nM | 40 nM | 50 nM | 100 nM | 80 nM | 40 nM | 70 nM | C/C=C1\NC(=O)c2nc(ccc2F)CNC(=O)C[C@@H](/C=C/CCSC(=O)CCC)OC(=O)[C@H](C(C)C)NC1=O [Example 42] | GI50 [21]: 50 nM
6 | no activity | 36 nM | 27 nM | 57 nM | 38 nM | 37 nM | 53 nM | 35 nM | 38 nM | 28 nM | 73 nM | 50 nM | 30 nM | 60 nM | 80 nM | 80 nM | 20 nM | 20 nM | 80 nM | 50 nM | C/C=C1\NC(=O)c2ccc(F)c(n2)CNC(=O)C[C@@H](/C=C/CCS)OC(=O)[C@H](CC)NC1=O [Compound 111] | GI50 [21]: 20 nM
7 | no activity | 83 nM | 35 nM | 37 nM | 29 nM | 23 nM | 36 nM | 23 nM | 26 nM | 36 nM | 72 nM | – | – | – | – | – | – | – | – | – | C/C=C1\NC(=O)c2cc(SC)cc(n2)CNC(=O)C[C@@H](/C=C/CCSC(=O)CCCC)OC(=O)[C@H](C(C)C)NC1=O [Compound 157] | GI50 ([2]; A549 cells): 20 nM; GI50 ([3]; BGC-823 cells): 30 nM; GI50 ([5]; DU145 cells): 70 nM; GI50 ([8]; HT1080 cells): 90 nM; GI50 ([9]; Hela cells): 70 nM; GI50 ([14]; MCF-7 cells): 20 nM; GI50 ([16]; MOLT-4 cells): 20 nM; GI50 ([18]; PANC-1 cells): 20 nM; GI50 ([20]; U937 cells): 20 nM; GI50 ([21]; lncap cells): 50 nM
